We go through one molecule from patent US5491072A, “N-alkylacridan carboxyl derivatives useful for chemiluminescent detection” (Lumigen, Inc., priority 1993, dated 1996).

Experiment [1] deals with T1, horseradish peroxidase (Armoracia rusticana, UniProt P00433).
T1 sequence (P00433 31-338 limits assumed): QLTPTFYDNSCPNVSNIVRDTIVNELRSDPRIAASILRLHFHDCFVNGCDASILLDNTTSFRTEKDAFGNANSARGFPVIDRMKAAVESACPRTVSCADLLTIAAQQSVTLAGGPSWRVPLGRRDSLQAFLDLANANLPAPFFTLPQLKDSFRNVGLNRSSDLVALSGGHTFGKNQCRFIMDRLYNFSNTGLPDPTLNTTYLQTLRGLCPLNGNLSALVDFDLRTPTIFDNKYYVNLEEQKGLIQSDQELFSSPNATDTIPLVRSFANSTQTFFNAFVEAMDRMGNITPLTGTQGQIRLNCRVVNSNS
Nature of the experiment: Effect of pH and buffer salt on chemiluminescence of 1b. The class given is biochemical. The settings on record: 0.1 mM 1b, 0.8 mM H2O2, 2.25 mM p-iodophenol, 1.4×10^-15 mol HRP, 30 min, room temperature. The procedure:
(§1) The experiments in the following examples were performed using a Turner Designs TD-20e luminometer fitted with neutral density filter for light attenuation. Data collection, analysis and display were software controlled. Constant temperature was maintained by means of an external circulating water bath connected to the luminometer.
The present invention may be practiced over the pH range of at least 7-9 and functions with different buffering salts. Tubes containing 200 μL of a formulation containing 0.1 mM 1b in the specified buffer, 0.8 mM H2 O2, 2.25 mM p-iodophenol, 0.5% (w/w) Tween 20 and 1 mM EDTA were placed in the luminometer at room temperature. Horseradish peroxidase (1.4×10^-15 mol) was injected and the chemiluminescence intensity determined at 30 min. The time course of the light emission was similar in all four solutions. The optimum pH can vary with changes in the concentrations of the reactants.

The target of experiment [2] is T1, horseradish peroxidase. Nature of the experiment: Sensitivity of detection of horseradish peroxidase using 1b and hydrogen peroxide. The settings on record: 1b 46 μmol/L, 0.2 mmol/L hydrogen peroxide, 37° C.; for linear assay range for HRP: pH 8.0 tris. The experiment is classed as biochemical. As to the method: as §1
A matrix optimization experiment was done using 1b (0.1 mM-0.05 mM), hydrogen peroxide (4.4 mM-44 μM), HRP (9×10^-19 mol-1.4×10^-12 mol) at 37° C. The final assay reagent consists of 2.25×10^-3 M p-iodophenol, 0.5% Tween 20 and 1×10^-3 M EDTA in pH 8.0, 0.1M tris buffer. The best compromise between sensitivity and dynamic range was obtained using 1b (46 μmol/L) and 0.2 mmol/L hydrogen peroxide. These conditions gave a linear assay for HRP in the range of 9×10^-19 to 1.4×10^-14 mol (detection limit S/B=1.4 after 5 min with 9×10^-19 mol) or in the range of 9×10^-19 to 1.4×10^-15 mol (detection limit S/B=2 after 15 min with 9×10^-19 mol).
FIGS. 2A to 2C show the correlation of corrected signal to background vs. amount of HRP using solutions containing 0.05 mM 1b, 0.5% Tween 20, 1×10^-3 M EDTA in pH 8.0, 0.1M tris buffer.

The next experiment has as its system human transferrin. Nature of the experiment: Chemiluminescent detection of proteins by Western blot. From the text: To determine the sensitivity of reagents of the present invention for detection of proteins by Western blotting, a model system of transferrin was used to provide polypeptide bands in known quantities.
Rabbit anti-goat IgG-peroxidase conjugate and rabbit anti-goat IgG-peroxidase were obtained from Cappel Products (Durham, N.C.). Human transferrin and fractionated goat anti-human transferrin serum were purchased from Sigma Chemical Co. (St. Louis, Mo.)). The IgG sample was centrifuged at 10,000 g for two minutes and the supernatant was used in the immunological reaction. Immobilon™-P transfer membrane was obtained from Millipore Corp. (Bedford, Mass.). Kodak (Rochester, N.Y.) X-OMAT AR and OMC films were used in the assay procedure.
SDS-PAGE was performed utilizing the buffer system described by Laemmli (U. K. Laemmli, Nature (London), 227, 680 (1970)). The stacking gel was 4.38% acrylamide: 0.12% bisacrylamide. The separating gel was 6.81% acrylamide: 0.19% bisacrylamide. Following electrophoresis the gel was equilibrated for 7-8 minutes with the transfer buffer which contained 20 mM Tris, 153 mMglycine and 20% (v/v) methanol. The gel, sandwiched between a sheet of transfer membrane and a sheet of chromatography paper 3MM (Whatman), was placed in the transfer unit (Bio-Rad Laboratories, Richmond, Calif.). […]

The target of a further experiment is T2, HRP (Armoracia rusticana, UniProt P00433).
T2 sequence (P00433 31-338 limits assumed): T1 sequence (P00433 31-338 limits assumed)
Nature of the experiment: Comparison of detection of HRP with luminol reagent and 1b reagent. The experiment is classed as biochemical, horseradish. The settings on record: corrected signal-to-background at 5 min, 37° C., comparing log (S-B)/B=0. As to the method:
as §1
Forty μL of a solution containing 1b (0.05 mM), p-iodophenol (2.25 mM), H2 O2 (0.2 mM), Tween 20 (0.5%), EDTA (1 mM) in 0.1M tris, pH 8.0 and forty μL of the commercial reagent (Amersham, Arlington Heights, Ill.) were incubated at 37° C. and reacted with varying amounts of HRP. FIG. 6 compares the corrected signal-to-background ratios at 5 min. […] Measuring light intensity at 15 min provides an additional reduction in detection limit with the reagent containing 1b, while the luminol reagent results are unchanged.

Regarding `CN1c2ccccc2C(C(=O)Oc2ccc(O)cc2)c2ccccc21` [Compound 1b, 4'-Hydroxyphenyl 10-methylacridan-9-carboxylate], the S/B at horseradish peroxidase [1] (0.1 M phosphate buffer, pH 8.9) is on record as 306; at horseradish peroxidase [1] (0.1 M tris buffer, pH 8.0) it was 1400; on horseradish peroxidase [1] (0.1 M tris buffer, pH 8.5), 600; at horseradish peroxidase [1] (0.1 M tris buffer, pH 8.9), 160. For the same molecule, the “linear assay range for HRP” value on horseradish peroxidase [2] (after 5 min) fell in the range of 9e-19 to 1.4e-14 mol; at horseradish peroxidase [2] (after 15 min), 9e-19 to 1.4e-15 mol. The “detection limit S/B” value at horseradish peroxidase [2] (after 5 min with 9×10^-19 mol HRP) is recorded as 1.4; at horseradish peroxidase [2] (after 15 min with 9×10^-19 mol HRP) it was 2. For the same molecule, the “duration of detectable chemiluminescence on membrane (X-ray film)” value in the experiment on human transferrin (HRP-conjugate on membrane, Western blot) is listed as “at least three hours”. The “transferrin standards clearly visible down to” value with human transferrin (detection reagent with 5 × 10^-5 M 1b and NaBO3, 7 sec exposure X-OMAT AR film or 30 second exposure OMC film) is 20 pg/slot. Besides, the “sensitivity of detection of HRP compared to the luminol reagent” value at HRP was “greater sensitivity of detection”.
